Test results from patent publication US20260250312A1, “ANTIBACTERIAL COMPOUNDS ELIMINATING DORMANT BACTERIAL CELLS” (UNIVERSITÉ D'AIX-MARSEILLE, priority 2022, published 2026).
≈ marks a conversion by molar mass, not a printed value. Where “and” joins values, the source holds several entries; their conditions need not be identical. Equal values may be shown once. Read-outs that look alike come from different tables or passages of the source. Marks after values point to notes of the source that are not given here.

Key:
[1] = test system: Staphylococcus aureus (ATCC25923); assay: Microdilution MIC assay (CLSI-based), S. aureus; type: cell-based; details: Staphylococcus aureus, ATCC25923, 20 h, 20 hours incubation at 35-37° C., MHB; read-out: Minimum inhibitory concentration S. aureus ATCC25923
Protocol: (§1) The antibacterial activity of compounds was measured using a standard microdilution assay based on the Clinical and Laboratory Standards Institute (CLSI) guidelines. This method was slightly modified. Indeed, assay volumes were increased to 200 μL to improve reproducibility. The chemical compounds to be tested were in the form of salts for biological testing.
(§2) Bacteria tested: Antibacterial activities of the compounds were tested on Staphylococcus aureus (ATCC25923), Enterococcus faecalis (ATCC29212), Escherichia coli ([…]) and Pseudomonas aeruginosa (ATCC27853).
(§3) Preparation of the Preculture: Mueller Hinton Agar plates were inoculated with frozen biological strain in order to obtain separate colonies and the plates were incubated during 24 h at 35-37° C. 3 colonies of similar aspect were picked out, resuspended in 5 mL of fresh Mueller Hinton broth 1× (MHB) and incubated with shaking (160 rpm) at 35-37° C. overnight.
(§4) 0.1 mL of bacteria in exponential phase were suspended in 9.9 mL of MHB (1:100 dilution). 0.1 mL of the 1:100 dilution were dispensed into the wells of microplates containing 0.1 ml of serial compounds dilutions to yield ca. 5×10^5 CFU/mL. In parallel, the stocks solutions of chemical compounds were first diluted in appropriate solvent to a final concentration of 5 mg/mL. 8 μL were dispended into the first wells of the microplates containing 0.1 ml of sterile broth and a 0.5 cascade dilution was performed in MHB from 0.2 mg/mL. One control was made for each strain tested. […] Tests were performed in triplicate.
(§5) Reading of the Results: After incubation, the filter was replaced with a transparent film, and an optical density reading was then taken in an iEMS plate spectrophotometer at 620 nm. Calculation of the minimum inhibitory concentration (MIC) was performed.

[2] = test system: Enterococcus faecalis (ATCC29212); assay: Microdilution MIC assay (CLSI-based), E. faecalis; type: cell-based; details: Enterococcus faecalis, ATCC29212, 20 h, 20 hours incubation at 35-37° C., MHB; read-out: Minimum inhibitory concentration E. faecalis ATCC29212
Protocol: as §1, §2, §3, §4, §5

[3] = test system: Escherichia coli (ATCC28922); assay: Microdilution MIC assay (CLSI-based), E. coli; type: cell-based; details: 20 hours incubation at 35-37° C., MHB; for MIC: read-out: Minimum inhibitory concentration E. coli ATCC28922
Protocol: as §1, §2, §3, §4, §5

[4] = test system: Pseudomonas aeruginosa (ATCC27853); assay: Microdilution MIC assay (CLSI-based), P. aeruginosa; type: cell-based; details: 20 hours incubation at 35-37° C., MHB; for MIC: Pseudomonas aeruginosa, ATCC27853, 20 h, read-out: Minimum inhibitory concentration P. aeruginosa ATCC27853
Protocol: as §1, §2, §3, §4, §5

CHO-K1 cells = assay: WST1 cytotoxicity test; type: cell-based, Chinese hamster; details: Cricetulus griseus, CHO-K1, 24 h, WST1, 24 hours at 37° C.; read-out: IC50 CHO
Description: Cytotoxicity: The test WST1 was used to measure the cytotoxic activity of the compounds of the invention. The test WST1 is a colorimetric test allowing to measure the viability and the degree of cell proliferation. It is based on cleavage of the colorless tetrazolium salts WST-1 (4—[3-(4-iodophenyl)-2-(4-nitrophenyl)-2H-5-tetrazolio]-1,3-benzene disulfonate) with mitochondrial dehydrogenases to the yellow-colored formazan derivative, which may be quantified by spectrophotometry at 420-480 nm. The WST1 test was performed on Chinese hamster ovary (CHO) cells. The CHO-K1 cells (ATCC, USA) were kept in culture in McCoy's 5A medium supplemented with 10% fetal calf serum, 2 mM of L-glutamine and a mixture of penicillin-streptomycin (100 U/ml: 10 μg/mL). The culture was incubated at 37° C. under an atmosphere enriched in CO2 (5%), and subcultured every two days. The cells were transferred into 96-well plates (25,000 cells/mL) in whole McCoy's 5A medium, and maintained for 24 hours at 37° C. under a humid atmosphere enriched in CO2 (5%). Increasing concentrations of tested compounds were added to the wells, each compound was tested in replicates and 8 growth controls containing the cells in the medium alone were included in each series of tests. After 24 hours at 37° C. (5% CO2), the culture medium was removed, the cells were rinsed in phosphate buffer (PBS) and 50 μL of PBS containing 10% of reagent WST1 were added to each well. After 20 minutes of incubation at 37° C., the results were read by spectrophotometry at 450 nm. The results are expressed in dose-response relationships, modeled by nonlinear regression analysis using the TableCurve software.
Cytotoxicity: The same WST1 test as described in Example 2 above was used.

[5] = Escherichia coli, ATCC28922, 20 h

## COC(=O)[C@H](CC(C)C)NC(=O)CC[C@@H](C)[C@H]1CCC2C3C(CC[C@@]21C)[C@@]1(C)CC[C@H](NCCCNCCCCNCCCN)C[C@H]1C[C@H]3O (stereo partly drawn) [Compound S036, methyl ((4R)-4-((3S,5S,7R,10S,13R,17R)-3-((3-((4-((3-aminopropyl)amino)butyl)amino)propyl)amino)-7-hydroxy-10,13-dimethylhexadecahydro-1H-cyclopenta[a]phenanthren-17-yl)pentanoyl)-L-leucinate]
[1]
  MIC: 50 µM and 32 µg/mL
[2]
  MIC: 6.25 µM and 4 µg/mL
[3]; [5]
  MIC: 6.25 µM and 4 µg/mL
[4]
  MIC: 12.5 µM and 8 µg/mL
CHO-K1 cells
  IC50: 50.5 µM and 35.6 µg/mL

## COC(=O)[C@H](Cc1ccccc1)NC(=O)CC[C@@H](C)[C@H]1CCC2C3C(CC[C@@]21C)[C@@]1(C)CC[C@H](NCCN)C[C@H]1C[C@H]3O (stereo partly drawn) [Compound S015, methyl ((4R)-4-((3S,5S,7R,10S,13R,17R)-3-((2-aminoethyl)amino)-7-hydroxy-10,13-dimethylhexadecahydro-1H-cyclopenta[a]phenanthren-17-yl)pentanoyl)-L-phenylalaninate]
[1]
  MIC: 12.5 µM and 8 µg/mL
[2]
  MIC: 12.5 µM and 8 µg/mL
[3]; [5]
  MIC: 12.5 µM and 8 µg/mL
[4]
  MIC: 50 µM and 32 µg/mL
CHO-K1 cells
  IC50: > 250 µM and > 149 µg/mL

## COC(=O)CNC(=O)CC[C@@H](C)[C@H]1CCC2C3C(CC[C@@]21C)[C@@]1(C)CC[C@H](NCCCNCCCCNCCCN)C[C@H]1C[C@H]3O (stereo partly drawn) [Compound S004, methyl ((4R)-4-((3S,5S,7R,10S,13R,17R)-3-((3-((4-((3-aminopropyl)amino)butyl)amino)propyl)amino)-7-hydroxy-10,13-dimethylhexadecahydro-1H-cyclopenta[a]phenanthren-17-yl)pentanoyl)glycinate]
[1]
  MIC: 6.25 µM and 4 µg/mL
[2]
  MIC: 50 µM and 32 µg/mL
[3]
  Minimum inhibitory concentration E. coli ATCC28922: 64 µg/mL (≈ 98.8 µM)
  MIC: 100 µM (≈ 64.8 µg/mL)
[4]
  Minimum inhibitory concentration P. aeruginosa ATCC27853: >200* μM and >128* μg/mL
CHO-K1 cells
  IC50: 51.7 µM and 33.5 µg/mL

## COC(=O)CNC(=O)CC[C@@H](C)[C@H]1CCC2C3C(CC[C@@]21C)[C@@]1(C)CC[C@H](NCCCN(CCCN)CCCN)C[C@H]1C[C@H]3O (stereo partly drawn) [Compound S005, methyl ((4R)-4-((3S,5S,7R,10S,13R,17R)-3-((3-(bis(3-aminopropyl)amino)propyl)amino)-7-hydroxy-10,13-dimethylhexadecahydro-1H-cyclopenta[a]phenanthren-17-yl)pentanoyl)glycinate]
[1]
  MIC: 12.5 µM and 8 µg/mL
[2]
  MIC: 200 µM and 128 µg/mL
[3]; [5]
  MIC: > 200 µM and > 126 µg/mL
[4]
  MIC: > 200 µM and > 126 µg/mL
CHO-K1 cells
  IC50: > 100 µM and > 64 µg/mL

## COC(=O)[C@H](Cc1ccccc1)NC(=O)CC[C@@H](C)[C@H]1CCC2C3C(CC[C@@]21C)[C@@]1(C)CC[C@H](NCCCN2CCN(CCCN)CC2)C[C@H]1C[C@H]3O (stereo partly drawn) [Compound S025, methyl ((4R)-4-((3S,5S,7R,10S,13R,17R)-3-((3-(4-(3-aminopropyl)piperazin-1-yl)propyl)amino)-7-hydroxy-10,13-dimethylhexadecahydro-1H-cyclopenta[a]phenanthren-17-yl)pentanoyl)-L-phenylalaninate]
[1]
  MIC: 25 µM and 16 µg/mL
[2]
  MIC: 25 µM and 16 µg/mL
[3]; [5]
  MIC: 25 µM and 16 µg/mL
[4]
  MIC: 100 µM and 64 µg/mL
CHO-K1 cells
  IC50: 3.7 µM and 2.72 µg/mL

## COC(=O)[C@@H](NC(=O)CC[C@@H](C)[C@H]1CC[C@H]2[C@@H]3[C@H](O)C[C@@H]4CC(NCCCN5CCN(CCCN)CC5)CC[C@]4(C)[C@H]3CC[C@]12C)C(C)C (mixture of isomers) [Compound S002, methyl ((4R)-4-((3S,5S,7R,10S,13R,17R)-3-((3-(4-(3-aminopropyl)piperazin-1-yl)propyl)amino)-7-hydroxy-10,13-dimethylhexadecahydro-1H-cyclopenta[a]phenanthren-17-yl)pentanoyl)valinate]
[1]
  MIC: 25 µM and 16 µg/mL
[2]
  MIC: 50 µM and 32 µg/mL
[3]; [5]
  MIC: 100 µM and 64 µg/mL
[4]
  MIC: 100 µM and 64 µg/mL
CHO-K1 cells
  IC50: 93.3 µM and 64.2 µg/mL

## COC(=O)[C@H](Cc1ccccc1)NC(=O)CC[C@@H](C)[C@H]1CCC2C3C(CC[C@@]21C)[C@@]1(C)CC[C@H](NCCCCN)C[C@H]1C[C@H]3O (stereo partly drawn) [Compound S030, methyl ((4R)-4-((3S,5S,7R,10S,13R,17R)-3-((4-aminobutyl)amino)-7-hydroxy-10,13-dimethylhexadecahydro-1H-cyclopenta[a]phenanthren-17-yl)pentanoyl)-L-phenylalaninate]
[1]
  MIC: 100 µM and 64 µg/mL
[2]
  MIC: 200 µM and 124 µg/mL
[3]; [5]
  MIC: 50 µM and 32 µg/mL
[4]
  MIC: > 200 µM and > 124 µg/mL
CHO-K1 cells
  IC50: > 500 µM and > 311 µg/mL

## COC(=O)[C@H](NC(=O)CC[C@@H](C)[C@H]1CCC2C3C(CC[C@@]21C)[C@@]1(C)CC[C@H](NCCCCCCCCCCN)C[C@H]1C[C@H]3O)C(C)C (stereo partly drawn) [Compound S009, methyl ((4R)-4-((3S,5S,7R,10S,13R,17R)-3-((10-aminodecyl)amino)-7-hydroxy-10,13-dimethylhexadecahydro-1H-cyclopenta[a]phenanthren-17-yl)pentanoyl)-D-valinate]
[1]
  MIC: 25 µM and 16 µg/mL
[2]
  MIC: 25 µM and 16 µg/mL
[3]; [5]
  MIC: 200 µM and 128 µg/mL
[4]
  MIC: > 200 µM and > 128 µg/mL
CHO-K1 cells
  IC50: 20 µM and 13.2 µg/mL

## COC(=O)[C@H](Cc1ccccc1)NC(=O)CC[C@@H](C)[C@H]1CCC2C3C(CC[C@@]21C)[C@@]1(C)CC[C@H](NCCCN(CCCN)CCCN)C[C@H]1C[C@H]3O (stereo partly drawn) [Compound S037, methyl ((4R)-4-((3S,5S,7R,10S,13R,17R)-3-((3-(bis(3-aminopropyl)amino)propyl)amino)-7-hydroxy-10,13-dimethylhexadecahydro-1H-cyclopenta[a]phenanthren-17-yl)pentanoyl)-L-phenylalaninate]
[1]
  MIC: 6.25 µM and 4 µg/mL
[2]
  MIC: 6.25 µM and 4 µg/mL
[3]; [5]
  MIC: 6.25 µM and 4 µg/mL
[4]
  MIC: 25 µM and 16 µg/mL
CHO-K1 cells
  IC50: 127 µM and 91.7 µg/mL

## COC(=O)CNC(=O)CC[C@@H](C)[C@H]1CCC2C3C(C[C@H](O)[C@@]21C)[C@@]1(C)CC[C@H](NCCCNCCCCNCCCN)C[C@H]1C[C@H]3O (stereo partly drawn) [Compound S051, methyl ((4R)-4-((3S,5S,7R,10S,12S,13R,17R)-3-((3-((4-((3-aminopropyl)amino)butyl)amino)propyl)amino)-7,12-dihydroxy-10,13-dimethylhexadecahydro-1H-cyclopenta[a]phenanthren-17-yl)pentanoyl)glycinate]
[1]
  MIC: 6.25 µM and 4 µg/mL
[2]
  MIC: 50 µM and 32 µg/mL
[3]; [5]
  MIC: 25 µM and 16 µg/mL
[4]
  MIC: 25 µM and 16 µg/mL
CHO-K1 cells
  IC50: 33.3 µM and 22.1 µg/mL
